Laboratory results from publication PMC10401832 (Biotechnology for Biofuels and Bioproducts, 2023).

What was measured:
GsAlaDH = biological target: T1, GsAlaDH (Geobacillus stearothermophilus, UniProt P17557); test: spectrophotometric NADH change at […] nm; format: biochemical; details: oxidative deamination, NAD+, Na2CO3-NaHCO3 pH 10.0; Table 1 heads this block 'Reductive reaction' but text assigns it to L-alanine
T1 construct: gene ald; possible hexamer (model)

purified protein = substrate: CC(=O)C(=O)O; test: purified protein; format: biochemical, Bacillus subtilis; details: reductive amination, NADH and NH4Cl, Tris-HCl pH 8.0, Table 1 heads this block 'Oxidative reaction' but text assigns it to pyruvate

T1 sequence (P17557 whole entry): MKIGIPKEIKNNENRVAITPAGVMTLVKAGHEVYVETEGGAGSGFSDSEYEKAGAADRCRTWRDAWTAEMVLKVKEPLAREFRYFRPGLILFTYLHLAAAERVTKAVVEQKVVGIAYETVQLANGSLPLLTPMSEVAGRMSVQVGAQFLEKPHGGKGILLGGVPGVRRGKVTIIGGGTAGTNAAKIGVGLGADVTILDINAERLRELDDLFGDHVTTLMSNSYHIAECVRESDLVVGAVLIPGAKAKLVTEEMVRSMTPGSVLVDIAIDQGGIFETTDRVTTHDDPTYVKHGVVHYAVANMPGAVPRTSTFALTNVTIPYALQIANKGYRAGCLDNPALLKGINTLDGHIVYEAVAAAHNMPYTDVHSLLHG

Km (GsAlaDH)	Molecule	Km (purified protein)
810 ± 250 µM	C[C@H](N)C(=O)O [L-alanine]	–
–	BsAlaDH (Bacillus subtilis subsp. subtilis str. 168) (protein, primers imply N-term MIIGVP, C-term SVAGA; about 45-55 kDa; possible hexamer (model)) MIIGVPKEIKNNENRVALTPGGVSQLISNGHRVLVETGAGLGSGFENEAYESAGAEIIADPKQVWDAEMVMKVKEPLPEEYVYFRKGLVLFTYLHLAAEPELAQALKDKGVTAIAYETVSEGRTLPLLTPMSEVAGRMAAQIGAQFLEKPKGGKGILLAGVPGVSRGKVTIIGGGVVGTNAAKMAVGLGADVTIIDLNADRLRQLDDIFGHQIKTLISNPVNIADAVAEADLLICAVLIPGAKAPTLVTEEMVKQMKPGSVIVDVAIDQGGIVETVDHITTHDQPTYEKHGVVHYAVANMPGAVPRTSTIALTNVTVPYALQIANKGAVKALADNTALRAGLNTANGHVTYEAVARDLGYEYVPAEKALQDESSVAGA	70 ± 30 µM
